Calls of active or inactive are those of the source. The calls are words filed in the database; no cut-off is given here.
Assays:
Format in all cases: cell-based
[1] = biological target: T1, Tyrosine-protein kinase JAK1 (Homo sapiens, UniProt P23458); experiment: Induction of JAK1 degradation in human Jurkat cells at 1 uM incubated for 6 hrs by Western blot analysis
[2] = biological target: Tyrosine-protein kinase JAK2 (Homo sapiens) (UniProt O60674); experiment: Induction of JAK2 degradation in human Jurkat cells at 1 uM incubated for 6 hrs by Western blot analysis
[3] = biological target: T2, Tyrosine-protein kinase JAK3 (Homo sapiens) (UniProt P52333); experiment: Induction of JAK3 degradation in human Jurkat cells at 1 uM incubated for 6 hrs by Western blot analysis
T2 sequence (whole entry): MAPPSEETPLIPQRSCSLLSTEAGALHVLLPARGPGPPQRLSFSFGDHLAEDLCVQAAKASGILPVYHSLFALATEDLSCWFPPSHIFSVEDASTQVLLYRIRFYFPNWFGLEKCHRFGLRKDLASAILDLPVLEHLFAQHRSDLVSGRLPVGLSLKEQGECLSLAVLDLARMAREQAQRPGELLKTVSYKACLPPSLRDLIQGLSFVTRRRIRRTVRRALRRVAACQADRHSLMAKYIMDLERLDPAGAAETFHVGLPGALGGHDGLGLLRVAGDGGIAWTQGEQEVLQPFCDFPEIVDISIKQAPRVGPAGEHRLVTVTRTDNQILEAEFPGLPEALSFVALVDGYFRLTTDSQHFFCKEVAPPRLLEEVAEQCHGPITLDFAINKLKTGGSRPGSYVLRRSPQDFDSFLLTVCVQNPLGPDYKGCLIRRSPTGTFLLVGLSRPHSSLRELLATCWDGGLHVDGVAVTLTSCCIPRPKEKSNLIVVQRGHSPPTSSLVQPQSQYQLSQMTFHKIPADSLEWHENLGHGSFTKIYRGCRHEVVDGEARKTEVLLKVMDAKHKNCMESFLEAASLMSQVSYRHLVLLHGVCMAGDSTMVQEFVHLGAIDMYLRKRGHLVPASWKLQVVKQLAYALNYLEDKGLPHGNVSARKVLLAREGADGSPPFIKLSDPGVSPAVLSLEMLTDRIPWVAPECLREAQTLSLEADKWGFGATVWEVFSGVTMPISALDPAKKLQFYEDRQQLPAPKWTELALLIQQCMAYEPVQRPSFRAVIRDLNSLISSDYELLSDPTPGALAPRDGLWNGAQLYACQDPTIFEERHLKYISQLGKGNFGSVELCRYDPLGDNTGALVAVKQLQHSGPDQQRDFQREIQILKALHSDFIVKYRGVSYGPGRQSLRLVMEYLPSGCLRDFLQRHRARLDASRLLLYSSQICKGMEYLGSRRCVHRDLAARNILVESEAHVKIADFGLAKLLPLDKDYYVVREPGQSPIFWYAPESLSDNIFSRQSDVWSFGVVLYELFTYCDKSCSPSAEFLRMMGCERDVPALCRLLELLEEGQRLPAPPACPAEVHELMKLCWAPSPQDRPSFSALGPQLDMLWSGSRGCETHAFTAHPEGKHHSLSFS

[4] = biological target: T3, Non-receptor tyrosine-protein kinase TYK2 (Homo sapiens, UniProt P29597); experiment: Induction of TYK2 degradation in human Jurkat cells at 1 uM incubated for 6 hrs by Western blot analysis
[5] = biological target: T3, Non-receptor tyrosine-protein kinase TYK2; experiment: Induction of TYK2 degradation in human Jurkat cells incubated for 24 hrs by Western blot analysis
[6] = biological target: T3, Non-receptor tyrosine-protein kinase TYK2; experiment: Induction of TYK2 degradation in human Jurkat cells at 10 uM incubated for 24 hrs by Western blot analysis relative to control
[7] = biological target: T3, Non-receptor tyrosine-protein kinase TYK2; experiment: Induction of TYK2 degradation in human Jurkat cells at 1 uM by Western blot analysis; conditions: time 3-24 hrs, TDE = time-dependent effect
[8] = biological target: T3, Non-receptor tyrosine-protein kinase TYK2; experiment: Induction of TYK2 degradation in human Jurkat cells assessed as reduction in TYK2 mRNA expression level up to 10 uM incubated for 6 to 24 hrs by quantitative-PCR analysis; conditions: time 6-24 hrs
[9] = biological target: T3, Non-receptor tyrosine-protein kinase TYK2; experiment: Induction of TYK2 degradation in human Jurkat cells at 1 uM incubated for 24 hrs in presence of 6-(5-fluoropyridin-2-ylamino)-4-(2-methoxy-3-(methylcarbamoyl)phenylamino)-N-methylnicotinamide by Western blot analysis
[10] = biological target: T3, Non-receptor tyrosine-protein kinase TYK2; experiment: Induction of TYK2 degradation in human Jurkat cells at 1 to 10 uM pretreated with MG-132 followed by compound treatment for 24 hrs by Western blot analysis; conditions: dose 1-10 µM
[11] = biological target: T3, Non-receptor tyrosine-protein kinase TYK2; experiment: Induction of TYK2 degradation in human Jurkat cells at 10 uM incubated for 24 hrs by Western blot analysis
[12] = biological target: T3, Non-receptor tyrosine-protein kinase TYK2; experiment: Induction of TYK2 degradation in human Jurkat cells incubated for 24 hrs
[13] = biological target: T3, Non-receptor tyrosine-protein kinase TYK2; experiment: Induction of TYK2 degradation in human Jurkat cells at 1 uM incubated for 24 hrs relative to control
[14] = biological target: T1, Tyrosine-protein kinase JAK1; experiment: Induction of JAK1 degradation in human Jurkat cells incubated for 24 hrs
[15] = biological target: T1, Tyrosine-protein kinase JAK1; experiment: Induction of JAK1 degradation in human Jurkat cells at 1 uM incubated for 24 hrs relative to control
[16] = biological target: T3, Non-receptor tyrosine-protein kinase TYK2; experiment: Induction of TYK2 degradation in human Jurkat cells at 100 nM incubated for 24 hrs relative to control
[17] = biological target: T1, Tyrosine-protein kinase JAK1; experiment: Induction of JAK1 degradation in human Jurkat cells at 10 uM incubated for 24 hrs relative to control

Sequence of Tyrosine-protein kinase JAK2 (Homo sapiens) (O60674 whole entry): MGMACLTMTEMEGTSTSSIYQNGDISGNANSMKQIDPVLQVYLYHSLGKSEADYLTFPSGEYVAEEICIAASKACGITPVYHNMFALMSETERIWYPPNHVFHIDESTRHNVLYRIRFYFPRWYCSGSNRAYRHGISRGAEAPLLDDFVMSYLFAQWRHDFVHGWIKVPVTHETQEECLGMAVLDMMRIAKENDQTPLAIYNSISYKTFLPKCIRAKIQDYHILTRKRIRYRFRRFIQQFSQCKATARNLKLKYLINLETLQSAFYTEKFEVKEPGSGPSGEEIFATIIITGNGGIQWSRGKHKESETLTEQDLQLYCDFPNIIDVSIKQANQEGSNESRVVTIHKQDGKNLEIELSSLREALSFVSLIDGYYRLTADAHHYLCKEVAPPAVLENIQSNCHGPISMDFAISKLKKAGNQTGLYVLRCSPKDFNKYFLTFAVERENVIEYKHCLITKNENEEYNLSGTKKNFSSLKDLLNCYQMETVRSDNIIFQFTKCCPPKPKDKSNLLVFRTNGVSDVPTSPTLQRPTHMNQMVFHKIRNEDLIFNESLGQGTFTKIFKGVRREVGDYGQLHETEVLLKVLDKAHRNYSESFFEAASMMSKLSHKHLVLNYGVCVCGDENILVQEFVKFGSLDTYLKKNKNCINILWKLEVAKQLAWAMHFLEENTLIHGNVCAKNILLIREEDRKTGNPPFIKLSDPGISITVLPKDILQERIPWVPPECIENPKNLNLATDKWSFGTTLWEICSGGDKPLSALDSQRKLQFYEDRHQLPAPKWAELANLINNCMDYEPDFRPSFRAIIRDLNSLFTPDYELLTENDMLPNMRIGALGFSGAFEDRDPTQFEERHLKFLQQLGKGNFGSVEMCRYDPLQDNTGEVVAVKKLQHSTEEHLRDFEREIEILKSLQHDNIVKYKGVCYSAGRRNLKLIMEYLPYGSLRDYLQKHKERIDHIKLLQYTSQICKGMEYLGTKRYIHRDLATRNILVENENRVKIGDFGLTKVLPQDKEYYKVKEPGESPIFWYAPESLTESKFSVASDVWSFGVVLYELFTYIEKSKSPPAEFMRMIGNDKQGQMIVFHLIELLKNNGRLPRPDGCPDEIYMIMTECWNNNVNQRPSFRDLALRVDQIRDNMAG
T3 sequence (P29597 whole entry): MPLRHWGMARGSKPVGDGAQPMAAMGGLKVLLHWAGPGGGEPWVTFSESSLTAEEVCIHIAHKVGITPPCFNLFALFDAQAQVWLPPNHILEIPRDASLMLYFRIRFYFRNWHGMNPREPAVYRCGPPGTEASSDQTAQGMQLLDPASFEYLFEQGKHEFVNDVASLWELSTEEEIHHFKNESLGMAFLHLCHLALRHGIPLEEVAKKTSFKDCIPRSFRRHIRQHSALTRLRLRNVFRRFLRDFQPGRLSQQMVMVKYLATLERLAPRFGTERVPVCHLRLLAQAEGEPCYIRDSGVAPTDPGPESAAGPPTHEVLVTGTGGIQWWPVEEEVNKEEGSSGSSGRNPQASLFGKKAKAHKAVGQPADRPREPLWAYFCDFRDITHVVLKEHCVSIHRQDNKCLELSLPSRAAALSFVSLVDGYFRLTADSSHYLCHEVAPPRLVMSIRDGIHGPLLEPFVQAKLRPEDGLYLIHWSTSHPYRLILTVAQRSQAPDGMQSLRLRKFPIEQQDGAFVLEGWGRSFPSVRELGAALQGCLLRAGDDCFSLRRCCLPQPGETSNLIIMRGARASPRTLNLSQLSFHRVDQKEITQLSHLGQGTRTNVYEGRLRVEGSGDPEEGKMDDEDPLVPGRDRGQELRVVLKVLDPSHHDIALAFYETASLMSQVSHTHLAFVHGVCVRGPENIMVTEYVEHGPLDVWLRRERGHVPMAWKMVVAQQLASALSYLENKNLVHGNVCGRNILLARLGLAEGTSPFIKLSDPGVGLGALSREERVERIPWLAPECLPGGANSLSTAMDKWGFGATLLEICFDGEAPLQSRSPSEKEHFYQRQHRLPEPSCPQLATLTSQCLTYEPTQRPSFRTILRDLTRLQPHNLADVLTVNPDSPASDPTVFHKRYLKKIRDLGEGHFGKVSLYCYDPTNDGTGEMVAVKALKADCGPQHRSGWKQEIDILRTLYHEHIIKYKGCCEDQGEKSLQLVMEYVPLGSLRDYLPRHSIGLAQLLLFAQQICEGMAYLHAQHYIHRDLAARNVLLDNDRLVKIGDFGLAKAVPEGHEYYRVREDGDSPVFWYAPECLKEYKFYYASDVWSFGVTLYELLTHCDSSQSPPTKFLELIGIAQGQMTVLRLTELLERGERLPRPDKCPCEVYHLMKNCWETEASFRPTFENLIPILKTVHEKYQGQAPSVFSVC
T1 sequence (P23458 whole entry): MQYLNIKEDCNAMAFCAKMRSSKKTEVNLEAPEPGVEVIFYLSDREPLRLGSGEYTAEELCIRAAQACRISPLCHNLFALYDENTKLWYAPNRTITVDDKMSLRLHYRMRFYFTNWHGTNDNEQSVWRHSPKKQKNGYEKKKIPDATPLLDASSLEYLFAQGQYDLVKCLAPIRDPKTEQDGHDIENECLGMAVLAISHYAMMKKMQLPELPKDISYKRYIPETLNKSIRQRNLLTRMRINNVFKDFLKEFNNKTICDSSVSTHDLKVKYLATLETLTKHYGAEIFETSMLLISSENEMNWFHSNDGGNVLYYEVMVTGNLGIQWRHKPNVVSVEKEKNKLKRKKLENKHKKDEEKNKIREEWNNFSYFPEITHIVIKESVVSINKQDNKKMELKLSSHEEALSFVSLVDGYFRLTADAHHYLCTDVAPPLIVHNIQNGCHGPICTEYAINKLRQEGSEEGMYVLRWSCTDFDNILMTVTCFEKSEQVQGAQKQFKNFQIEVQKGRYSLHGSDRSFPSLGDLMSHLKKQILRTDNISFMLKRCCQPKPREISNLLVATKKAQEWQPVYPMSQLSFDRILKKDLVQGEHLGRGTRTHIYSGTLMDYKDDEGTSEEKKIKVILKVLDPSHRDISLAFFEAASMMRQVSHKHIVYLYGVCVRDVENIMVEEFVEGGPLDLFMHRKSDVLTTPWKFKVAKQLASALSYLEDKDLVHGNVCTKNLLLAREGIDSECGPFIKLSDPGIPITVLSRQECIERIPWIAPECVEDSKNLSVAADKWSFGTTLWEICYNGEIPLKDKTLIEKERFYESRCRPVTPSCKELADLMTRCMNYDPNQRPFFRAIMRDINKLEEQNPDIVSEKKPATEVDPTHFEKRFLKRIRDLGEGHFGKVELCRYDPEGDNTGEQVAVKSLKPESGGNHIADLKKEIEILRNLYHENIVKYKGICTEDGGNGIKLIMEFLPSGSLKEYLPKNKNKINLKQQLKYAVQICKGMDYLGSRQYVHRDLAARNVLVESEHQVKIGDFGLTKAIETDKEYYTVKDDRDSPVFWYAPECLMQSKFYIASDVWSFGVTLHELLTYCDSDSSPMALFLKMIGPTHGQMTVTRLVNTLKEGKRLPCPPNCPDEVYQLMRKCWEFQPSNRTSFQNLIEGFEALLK

SMILES | Activity [1] | Activity [2] | Activity [3] | also measured
CNC(=O)c1cnc(Nc2ccc(C(=O)NCCCCCCCCCCCC(=O)N[C@H](C(=O)N3C[C@H](O)C[C@H]3C(=O)NCc3ccc(-c4scnc4C)cc3)C(C)(C)C)cn2)cc1Nc1cccc(C(=O)NC)c1OC | inactive | inactive | inactive | 
CNC(=O)c1cnc(Nc2ccc(C(=O)NCCCCCCCC(=O)N[C@H](C(=O)N3C[C@H](O)C[C@H]3C(=O)NCc3ccc(-c4scnc4C)cc3)C(C)(C)C)cn2)cc1Nc1cccc(C(=O)NC)c1OC | inactive | inactive | inactive | 
CNC(=O)c1cnc(Nc2ccc(C(=O)NCCCCCCCCCC(=O)N[C@H](C(=O)N3C[C@H](O)C[C@H]3C(=O)NCc3ccc(-c4scnc4C)cc3)C(C)(C)C)cn2)cc1Nc1cccc(C(=O)NC)c1OC | inactive | inactive | inactive | Activity [4]: Active; DC50 [5]: 230 nM; Emax [6]: 77%; Activity [7]: Tde; Activity [8]: inactive; Activity [9]: Active; Activity [10]: Active
CNC(=O)c1cnc(Nc2ccc(C(=O)NCCCCCCCCCCC(=O)N[C@H](C(=O)N3C[C@H](O)C[C@H]3C(=O)NCc3ccc(-c4scnc4C)cc3)C(C)(C)C)cn2)cc1Nc1cccc(C(=O)NC)c1OC | inactive | inactive | inactive | 
Cc1ncsc1-c1ccc(CNC(=O)[C@@H]2C[C@@H](O)CN2C(=O)[C@@H](NC(=O)C2(C#N)CC2)C(C)(C)C)cc1 |  |  |  | Activity [9]: inactive; Activity [11]: Active
CNC(=O)c1cnc(Nc2ccc(C(=O)NCCCCCCCCC(=O)N[C@H](C(=O)N3C[C@H](O)C[C@H]3C(=O)NCc3ccc(-c4scnc4C)cc3)C(C)(C)C)cn2)cc1Nc1cccc(C(=O)NC)c1OC | inactive | inactive | inactive | 
CNC(=O)c1cccc(Nc2cc(Nc3ccc(C(=O)NCCCCCCCCCC(=O)N[C@H](C(=O)N4C[C@H](O)C[C@H]4C(=O)NCc4ccc(-c5scnc5C)cc4)C(C)(C)C)cn3)ncc2C(N)=O)c1OC | Active |  |  | DC50 [12]: 23 nM; Emax [13]: 85%; DC50 [14]: 1100 nM; Emax [15]: 49%
CNC(=O)c1cnc(Nc2ccc(F)cn2)cc1Nc1cccc(C(=O)NC)c1OC |  |  |  | Activity [11]: Active
CNC(=O)c1cnc(Nc2ccc(C(=O)NCCCC(=O)N[C@H](C(=O)N3C[C@H](O)C[C@H]3C(=O)NCc3ccc(-c4scnc4C)cc3)C(C)(C)C)cn2)cc1Nc1cccc(C(=O)NC)c1OC | Active | Active | Active | 
CNC(=O)c1cnc(Nc2ccc(C(=O)NCCCCCCCCCC(=O)N[C@H](C(=O)N3C[C@H](O)C[C@H]3C(=O)NCc3ccc(-c4scnc4C)cc3)C(C)(C)C)cn2)cc1Nc1cccc(-c2ncn(C)n2)c1OC |  | Active |  | DC50 [12]: 14 nM; DC50 [14]: ≥ 10000 nM; Emax [16]: 78%; Emax [17]: 25%
CNC(=O)c1cnc(Nc2ccc(C(=O)NCCCCCC(=O)N[C@H](C(=O)N3C[C@H](O)C[C@H]3C(=O)NCc3ccc(-c4scnc4C)cc3)C(C)(C)C)cn2)cc1Nc1cccc(C(=O)NC)c1OC | inactive | inactive | inactive | 

Reference: ChEMBL document CHEMBL5223147, “Discovery of a potent and subtype-selective TYK2 degrader based on an allosteric TYK2 inhibitor” (Bioorg Med Chem Lett, 2023)
